# Results published in patent publication US20100311714A1, “1H-IMIDAZO[4,5-c]QUINOLINONE COMPOUNDS” (priority 2009, published 2010).
# System: PKB Ser473 phosphorylation in Rat1-myr-HA-p110 alpha cells
# Test: Reverse protein array, PKB Ser473 phosphorylation in Rat1-myr-HA-p110 alpha cells
# Type: cell-based
# Details: Rattus norvegicus, 0.5 h, 30 minutes compound incubation, read-out: p-PKB/IC50_alpha
row,SMILES,IC50 [µM]
1,"CCOc1ccc(-c2ccc3ncc4c(c3c2)n(-c2cccnc2F)c(=O)n4C)cn1 [Example 6.1, 8-(6-Ethoxy-pyridin-3-yl)-1-(2-fluoro-pyridin-3-yl)-3-methyl-1,3-dihydro-imidazo[4,5-c]quinolin-2-one]",0.0315
2,"COc1ccc(-c2ccc3ncc4c(c3c2)n(-c2cccnc2C)c(=O)n4C)cc1OC [Example 2.9, 8-(3,4-Dimethoxy-phenyl)-3-methyl-1-(2-methyl-pyridin-3-yl)-1,3-dihydro-imidazo[4,5-c]quinolin-2-one]",0.0084
3,"Cc1cccnc1-n1c(=O)n(C)c2cnc3ccc(-c4ccc(CO)nc4)cc3c21 [Example 3.9, 8-(6-Hydroxymethyl-pyridin-3-yl)-3-methyl-1-(3-methyl-pyridin-2-yl)-1,3-dihydro-imidazo[4,5-c]quinolin-2-one]",0.301
4,"Cc1nc(N2CCC2)ccc1-n1c(=O)n(C)c2cnc3ccc(-c4cncc(OC(C)C)c4)cc3c21 [Example 23.9, 1-(6-Azetidin-1-yl-2-methyl-pyridin-3-yl)-8-(5-isopropoxy-pyridin-3-yl)-3-methyl-1,3-dihydro-imidazo[4,5-c]quinolin-2-one]",0.0262
5,"CCOc1cc(-c2ccc3ncc4c(c3c2)n(-c2ccc(F)nc2C)c(=O)n4C)cnc1COC [Example 7.5, 8-(5-Ethoxy-6-methoxymethyl-pyridin-3-yl)-1-(6-fluoro-2-methyl-pyridin-3-yl)-3-methyl-1,3-dihydro-imidazo[4,5-c]quinolin-2-one]",0.0315
6,"CNc1cc(-c2ccc3ncc4c(c3c2)n(-c2cccnc2C)c(=O)n4C)cnc1C [Example 2.32, 3-Methyl-8-(6-methyl-5-methylamino-pyridin-3-yl)-1-(2-methyl-pyridin-3-yl)-1,3-dihydro-imidazo[4,5-c]quinolin-2-one]",< 0.00457
7,"CCOc1ncc(-c2ccc3ncc4c(c3c2)n(-c2cccnc2C)c(=O)n4C)cn1 [Example 2.5, 8-(2-Ethoxy-pyrimidin-5-yl)-3-methyl-1-(2-methyl-pyridin-3-yl)-1,3-dihydro-imidazo[4,5-c]quinolin-2-one]",0.049
8,"CNc1ccc(-c2ccc3ncc4c(c3c2)n(-c2ccc(F)nc2C)c(=O)n4C)cn1 [Example 7.4, 1-(6-Fluoro-2-methyl-pyridin-3-yl)-3-methyl-8-(6-methylamino-pyridin-3-yl)-1,3-dihydro-imidazo[4,5-c]quinolin-2-one]",0.00718
9,"Cc1ncccc1-n1c(=O)n(C)c2cnc3ccc(-c4ccc(C(N)=O)cc4)cc3c21 [Example 2.3, 4-[3-Methyl-1-(2-methyl-pyridin-3-yl)-2-oxo-2,3-dihydro-1H-imidazo[4,5-c]quinolin-8-yl]-benzamide]",0.021
10,"Cc1ncccc1-n1c(=O)n(C)c2cnc3ccc(-c4ccc(CO)nc4)cc3c21 [Example 2.6, 8-(6-Hydroxymethyl-pyridin-3-yl)-3-methyl-1-(2-methyl-pyridin-3-yl)-1,3-dihydro-imidazo[4,5-c]quinolin-2-one]",0.0386
11,"CCOc1ccc(-c2ccc3ncc4c(c3c2)n(-c2cnccc2C)c(=O)n4C)cn1 [Example 4.2, 8-(6-Ethoxy-pyridin-3-yl)-3-methyl-1-(4-methyl-pyridin-3-yl)-1,3-dihydro-imidazo[4,5-c]quinolin-2-one]",0.0473
12,"COc1ccc(-c2ccc3ncc4c(c3c2)n(-c2ncccc2C)c(=O)n4C)cc1OC [Example 3.10, 8-(3,4-Dimethoxy-phenyl)-3-methyl-1-(3-methyl-pyridin-2-yl)-1,3-dihydro-imidazo[4,5-c]quinolin-2-one]",0.0783
13,"Cc1nc(F)ccc1-n1c(=O)n(C)c2cnc3ccc(-c4cnc5c(ccn5C)c4)cc3c21 [Example 7.2, 1-(6-Fluoro-2-methyl-pyridin-3-yl)-3-methyl-8-(1-methyl-1H-pyrrolo[2,3-b]pyridin-5-yl)-1,3-dihydro-imidazo[4,5-c]quinolin-2-one]",0.0121
14,"Cc1ncccc1-n1c(=O)n(C)c2cnc3ccc(-c4cncc(N5CCC5)c4)cc3c21 [Example 2.29, 8-(5-Azetidin-1-yl-pyridin-3-yl)-3-methyl-1-(2-methyl-pyridin-3-yl)-1,3-dihydro-imidazo[4,5-c]quinolin-2-one]",0.0087
15,"Cc1ncccc1-n1c(=O)n(C)c2cnc3ccc(-c4cnc(N)c(C(F)(F)F)c4)cc3c21 [Example 2.11, 8-(6-Amino-5-trifluoromethyl-pyridin-3-yl)-3-methyl-1-(2-methyl-pyridin-3-yl)-1,3-dihydro-imidazo[4,5-c]quinolin-2-one]",0.00702
16,"Cc1ccncc1-n1c(=O)n(C)c2cnc3ccc(-c4ccc(CO)nc4)cc3c21 [Example 4.1, 8-(6-Hydroxymethyl-pyridin-3-yl)-3-methyl-1-(4-methyl-pyridin-3-yl)-1,3-dihydro-imidazo[4,5-c]quinolin-2-one]",0.542
17,"CCOc1ccc(-c2ccc3ncc4c(c3c2)n(-c2ccc(N3CCNCC3)nc2OC)c(=O)n4C)cn1 [Example 9.1, 8-(6-Ethoxy-pyridin-3-yl)-1-(2-methoxy-6-piperazin-1-yl-pyridin-3-yl)-3-methyl-1,3-dihydro-imidazo[4,5-c]quinolin-2-one]",0.0184
18,"COc1ncccc1-n1c(=O)n(C)c2cnc3ccc(-c4cnc5[nH]ccc5c4)cc3c21 [Example 1.2, 1-(2-Methoxy-pyridin-3-yl)-3-methyl-8-(1H-pyrrolo[2,3-b]pyridin-5-yl)-1,3-dihydro-imidazo[4,5-c]quinolin-2-one]",0.0057
19,"CCOc1cc(-c2ccc3ncc4c(c3c2)n(-c2ccc(OCCOC)nc2C)c(=O)n4C)cnc1COC [Example 22.1, 8-(5-Ethoxy-6-methoxymethyl-pyridin-3-yl)-1-[6-(2-methoxy-ethoxy)-2-methyl-pyridin-3-yl]-3-methyl-1,3-dihydro-imidazo[4,5-c]quinolin-2-one]",0.0177
20,"CCOc1cc(-c2ccc3ncc4c(c3c2)n(-c2ccc(N3CCCC3)nc2C)c(=O)n4C)cnc1COC [Example 25.2, 8-(5-Ethoxy-6-methoxymethyl-pyridin-3-yl)-3-methyl-1-(2-methyl-6-pyrrolidin-1-yl-pyridin-3-yl)-1,3-dihydro-imidazo[4,5-c]quinolin-2-one]",0.048
21,"CN(C)c1ccc(-c2ccc3ncc4c(c3c2)n(-c2cccnc2)c(=O)n4C)cn1 [Example 5.3, 8-(6-Dimethylamino-pyridin-3-yl)-3-methyl-1-pyridin-3-yl-1,3-dihydro-imidazo[4,5-c]quinolin-2-one]",0.0922
22,"CCOc1ccc(-c2ccc3ncc4c(c3c2)n(-c2ccc(F)nc2C)c(=O)n4C)cn1 [Example 7.3, 8-(6-Ethoxy-pyridin-3-yl)-1-(6-fluoro-2-methyl-pyridin-3-yl)-3-methyl-1,3-dihydro-imidazo[4,5-c]quinolin-2-one]",0.0422
23,"Cc1ncccc1-n1c(=O)n(C)c2cnc3ccc(-c4cncc(N)c4)cc3c21 [Example 2.25, 8-(5-Amino-pyridin-3-yl)-3-methyl-1-(2-methyl-pyridin-3-yl)-1,3-dihydro-imidazo[4,5-c]quinolin-2-one]",0.0363

# Next, values leading:
row,IC50 [µM],SMILES
1,0.014,"CCNc1cc(-c2ccc3ncc4c(c3c2)n(-c2ccc(N3CC(O)C3)nc2C)c(=O)n4C)cnc1CO [Example 29.2, 8-(5-Ethylamino-6-hydroxymethyl-pyridin-3-yl)-1-[6-(3-hydroxy-azetidin-1-yl)-2-methyl-pyridin-3-yl]-3-methyl-1,3-dihydro-imidazo[4,5-c]quinolin-2-one]"
2,0.01,"CNc1ncc(-c2ccc3ncc4c(c3c2)n(-c2ccc(N3CC[C@H](O)C3)nc2C)c(=O)n4C)cc1C(F)(F)F [Example 32.5, 1-[6-((S)-3-Hydroxy-pyrrolidin-1-yl)-2-methyl-pyridin-3-yl]-3-methyl-8-(6-methylamino-5-trifluoromethyl-pyridin-3-yl)-1,3-dihydro-imidazo[4,5-c]quinolin-2-one]"
3,0.017,"COc1ncc(-c2ccc3ncc4c(c3c2)n(-c2ccc(N3CC(O)C3)nc2C)c(=O)n4C)c(OC)n1 [Example 29.6, 8-(2,4-Dimethoxy-pyrimidin-5-yl)-1-[6-(3-hydroxy-azetidin-1-yl)-2-methyl-pyridin-3-yl]-3-methyl-1,3-dihydro-imidazo[4,5-c]quinolin-2-one]"
4,0.0358,"Cc1nc(N2CC[C@H](O)C2)ccc1-n1c(=O)n(C)c2cnc3ccc(-c4cncc(OC(C)C)c4)cc3c21 [Example 32.8, 1-[6-((S)-3-Hydroxy-pyrrolidin-1-yl)-2-methyl-pyridin-3-yl]-8-(5-isopropoxy-pyridin-3-yl)-3-methyl-1,3-dihydro-imidazo[4,5-c]quinolin-2-one]"
5,0.0117,"CCNc1ncc(-c2ccc3ncc4c(c3c2)n(-c2ccc(N3CC[C@@H](O)C3)nc2C)c(=O)n4C)cc1C(F)(F)F [Example 34.2, 8-(6-Ethylamino-5-trifluoromethyl-pyridin-3-yl)-1-[6-((R)-3-hydroxy-pyrrolidin-1-yl)-2-methyl-pyridin-3-yl]-3-methyl-1,3-dihydro-imidazo[4,5-c]quinolin-2-one]"
6,0.0146,"CNc1ncc(-c2ccc3ncc4c(c3c2)n(-c2ccc(C(C)(C)O)nc2C)c(=O)n4C)cc1F [Example 31.1, 8-(5-Fluoro-6-methylamino-pyridin-3-yl)-1-[6-(1-hydroxy-1-methyl-ethyl)-2-methyl-pyridin-3-yl]-3-methyl-1,3-dihydro-imidazo[4,5-c]quinolin-2-one]"
7,0.008,"CNc1ncc(-c2ccc3ncc4c(c3c2)n(-c2ccc(N3CC(O)C3)nc2C)c(=O)n4C)cc1C(F)(F)F [Example 29.4, 1-[6-(3-Hydroxy-azetidin-1-yl)-2-methyl-pyridin-3-yl]-3-methyl-8-(6-methylamino-5-trifluoromethyl-pyridin-3-yl)-1,3-dihydro-imidazo[4,5-c]quinolin-2-one]"
8,0.0081,"CNc1ncc(-c2ccc3ncc4c(c3c2)n(-c2ccc(N3CC[C@H](O)C3)nc2C)c(=O)n4C)cc1F [Example 32.2, 8-(5-Fluoro-6-methylamino-pyridin-3-yl)-1-[6-((S)-3-hydroxy-pyrrolidin-1-yl)-2-methyl-pyridin-3-yl]-3-methyl-1,3-dihydro-imidazo[4,5-c]quinolin-2-one]"
